Experiment in all cases: biochemical
Assay [1] concerns the target T1, P. falciparum Rh5 (Rh5 – basigin interaction) (Plasmodium falciparum, UniProt Q8IFM5). On the set-up: AlphaScreen of Rh5 - His-tagged basigin interaction with anti-Rh5 mAb beads; inhibition of luminescence signal. The following applies: confirmation screen, duplicate; for % Inhibition Confirmation: 10 µM, inhibitor. How it is done:
Using the Combi-multidrop, 5 μL of Rh5 stock solution (200 nM prepared in assay buffer) was added to columns 1–24 of the 384-well assay plate (Greiner 384-well white, low binding plate, #784904, Bioone). The PerkinElmer Janus automated dispensing system was then employed to transfer, via the pin-tool, 2 × 100 nL of the compound stock DMSO solution from the compound master plate to the assay plate. The plate was sealed and incubated for 30 min at room temperature. Using a Combi-multidrop, 5 μL of hexa-histidine tagged basigin stock solution (80 nM prepared in assay buffer) was then added to columns 1–23 and 5 μL assay buffer to column 24 of the 384-well assay plate. The plate was sealed again and incubated for 30 min at room temperature. A solution of AlphaScreen donor and acceptor beads (20 μg/mL prepared in assay buffer) plus anti-Rh5 mAb solution (2 μg/mL prepared in assay buffer) was prepared in assay buffer under subdued lighting. Using the Combi-multidrop, 10 μL of this solution was added to every well of the assay plate under subdued lighting. The plate was sealed with foil (plate max) and incubated at room temperature for 1 h. The assay plate was then analysed on the PerkinElmer Envision 2103 Multilabel Plate Reader (Ex 680, Em 520–620 nm). […] Historically, PPIs are notoriously difficult to target with small molecules. To enhance the likelihood of identifying an inhibitor of the Rh5 - basigin interaction the primary screen was conducted at a compound concentration of 20 μM. A 20 μM screening concentration is considered high, when compared to the commonly used primary screen concentrations of approximately 1–10 μM. […] To do this, a two-phase hit confirmation and counterscreen process was undertaken (Fig. 1). […] Both assays were undertaken at 10 μM in duplicate. The counterscreen assay was conducted using AlphaScreen TruHits.

In assay [2] the target is T1, P. falciparum Rh5 (Rh5 – basigin interaction). Also noted: AlphaScreen of Rh5 - His-tagged basigin interaction with anti-Rh5 mAb beads; inhibition of luminescence signal. The settings on record: primary pilot screen, single point; for % Inhibition Pilot: 20 µM, inhibitor. The protocol:
Using the Combi-multidrop, 5 μL of Rh5 stock solution (200 nM prepared in assay buffer) was added to columns 1–24 of the 384-well assay plate (Greiner 384-well white, low binding plate, #784904, Bioone). The PerkinElmer Janus automated dispensing system was then employed to transfer, via the pin-tool, 2 × 100 nL of the compound stock DMSO solution from the compound master plate to the assay plate. The plate was sealed and incubated for 30 min at room temperature. Using a Combi-multidrop, 5 μL of hexa-histidine tagged basigin stock solution (80 nM prepared in assay buffer) was then added to columns 1–23 and 5 μL assay buffer to column 24 of the 384-well assay plate. The plate was sealed again and incubated for 30 min at room temperature. A solution of AlphaScreen donor and acceptor beads (20 μg/mL prepared in assay buffer) plus anti-Rh5 mAb solution (2 μg/mL prepared in assay buffer) was prepared in assay buffer under subdued lighting. Using the Combi-multidrop, 10 μL of this solution was added to every well of the assay plate under subdued lighting. The plate was sealed with foil (plate max) and incubated at room temperature for 1 h. The assay plate was then analysed on the PerkinElmer Envision 2103 Multilabel Plate Reader (Ex 680, Em 520–620 nm). The optimised Rh5 AlphaScreen assay was then validated for HT screening purposes by conducting a pilot screen using known drug library (from Prestwick, Tocris and LOPAC) and the MMV Malaria Box, comprising 3708 and 400 compounds (Fig. 1), respectively. Historically, PPIs are notoriously difficult to target with small molecules. To enhance the likelihood of identifying an inhibitor of the Rh5 - basigin interaction the primary screen was conducted at a compound concentration of 20 μM. A 20 μM screening concentration is considered high, when compared to the commonly used primary screen concentrations of approximately 1–10 μM. To follow-up on hit compounds from the pilot validation screen, we next wanted to confirm the activity of the primary hits. To do this, a two-phase hit confirmation and counterscreen process was undertaken (Fig. 1). In the first phase, the 231 primary hits from both libraries were evaluated in the Rh5 AlphaScreen assay and counterscreen assay. Both assays were undertaken at 10 μM in duplicate. The counterscreen assay was conducted using AlphaScreen TruHits. […] The 45 secondary hits can be viewed in the top left quadrant of Fig. S8. Of the 45 hits, 13 compounds originated from the Malaria Box and 32 compounds from the known drug library.

Assay [3] has the same target. Format: binding. The settings on record: for Rh5 inhibitory activity in the AlphaScreen assay: highest concentration tested 50 μM. On the technique in general: Bead proximity is the source of the signal in Alpha formats.

Structures can show the parent of a compound that is named as a salt. A value given as a limit tells only on which side of the number the result lay.

T1 sequence (Q8IFM5 24-526): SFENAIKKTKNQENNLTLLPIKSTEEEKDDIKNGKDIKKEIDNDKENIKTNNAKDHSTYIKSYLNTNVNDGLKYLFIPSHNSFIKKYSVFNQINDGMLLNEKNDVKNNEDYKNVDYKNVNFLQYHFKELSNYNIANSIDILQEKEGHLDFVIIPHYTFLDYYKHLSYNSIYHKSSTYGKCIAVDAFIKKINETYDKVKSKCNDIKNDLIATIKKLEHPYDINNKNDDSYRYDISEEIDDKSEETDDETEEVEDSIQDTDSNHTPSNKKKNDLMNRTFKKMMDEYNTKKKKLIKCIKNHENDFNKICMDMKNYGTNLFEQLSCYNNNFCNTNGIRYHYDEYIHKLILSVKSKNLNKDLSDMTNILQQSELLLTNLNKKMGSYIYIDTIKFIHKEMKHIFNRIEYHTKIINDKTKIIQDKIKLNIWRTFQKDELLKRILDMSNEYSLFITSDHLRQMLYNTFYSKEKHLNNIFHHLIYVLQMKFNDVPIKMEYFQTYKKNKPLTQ

On to `NC(Cc1cc(O)c(O)cc1O)C(=O)O` (racemic) [WEHI-1215200, 6-Hydroxy-DL-DOPA], for which 10 µM produced 80.7% inhibition in assay [1] (Batch Reference=01). Also, in assay [2] (Batch Reference=01), the inhibition (in general, how much of the control response was suppressed) at 20 µM worked out at 69.7%. Take `CC(=O)N1CCN(c2ccc(OC[C@@H]3CO[C@@](Cn4ccnc4)(c4ccc(Cl)cc4Cl)O3)cc2)CC1` (racemic) [WEHI-1215227, Ketoconazole]: the inhibition at 20 µM in assay [2] (Batch Reference=02) amounted to 58.3%. As for `CCOC(=O)c1cc(=O)c2cccc(NC(=O)c3ccc(OCc4ccccc4)cc3)c2o1` [Compound 11, Ethyl 8-(4-(benzyloxy)benzamido)-4-oxo-4H-chromene-2-carboxylate], the IC50 (in general, the midpoint of a concentration-inhibition curve) in assay [3] is > 50 µM.

On to `CCOC(=O)c1cc(=O)c2cccc(NC(=O)c3ccc(OCCc4ccccc4)cc3)c2o1` [Compound 12, Ethyl 4-oxo-8-(4-phenethoxybenzamido)-4H-chromene-2-carboxylate], for which the IC50 in assay [3] is > 50 µM. As to `CCOC(=O)c1cc(=O)c2cccc(NC(=O)c3ccc(OCCCCc4ccccc4)cc3)c2o1` [Compound 14, Ethyl 4-oxo-8-(4-(4-phenylbutoxy)benzamido)-4H-chromene-2-carboxylate], the IC50 in assay [3] is > 50 µM. Turning to `O=C(Nc1cccc2c(=O)cc(C(=O)O)oc12)c1ccc(OCc2ccccc2)cc1` [Compound 15, 8-(4-(Benzyloxy)benzamido)-4-oxo-4H-chromene-2-carboxylic acid], in assay [3], the IC50 is > 50 µM and the “Rh5 inhibitory activity in the AlphaScreen assay” value (shortened to “Rh5 inhibitory activity”) is given as “No activity”. As for `CCOC(=O)c1cc(=O)c2cccc(NC(=O)c3ccc(OC)cc3)c2o1` [Compound 20, Ethyl 8-(4-methoxybenzamido)-4-oxo-4H-chromene-2-carboxylate], the IC50 in assay [3] was > 50 µM. For the molecule `CN(C)C(=O)CCSC(SCCC(=O)O)c1cccc(/C=C/c2ccc3ccc(Cl)cc3n2)c1` (stereo not shown) [MK 571, reference compound], in assay [3], the “Rh5 inhibitory activity” value is “did not show Rh5 inhibitory activity”. With `Br.CN1CCc2cc(O)cc3c2[C@H]1Cc1ccc(O)c(O)c1-3` [R(-)-2,10,11-trihydroxyaporphine, reference compound], the “Rh5 inhibitory activity” value in assay [3] is reported as “not active”. Still for that read-out and setting: with `CN1CCc2cccc3c2[C@H]1Cc1ccc(O)c(O)c1-3` [R(-)-apomorphine, reference compound] the entry was “not active”; with `CCCN1CCc2cccc3c2[C@H]1Cc1ccc(O)c(O)c1-3` [R(-)-propylnorapomorphine, reference compound], “not active”. In the case of `COC(=O)C1=C(C)NC(C)=C(C(=O)OC)C1c1ccccc1[N+](=O)[O-]` [WEHI-0104145, Nifedipine], the inhibition at 10 µM turned out to be 81.1% in assay [1] (Batch Reference=02) and 75.7% in assay [1] (Batch Reference=03). In addition, the figures for the inhibition at 20 µM in assay [2] (Batch Reference=02) and in assay [2] (Batch Reference=03) were 55.3% and 57.3%, respectively.

As to `CN1CCc2cccc3c2[C@H]1Cc1ccc(O)c(O)c1-3` [WEHI-1214737, Apomorphine hydrochloride hemihydrate], the “% Inhibition Confirmation” value in assay [1] (Batch Reference=01) is given as 72.2885%. Moreover, the “% Inhibition Pilot” value in assay [2] (Batch Reference=01) was determined as 62.755%. As to `CCCN1CCc2cccc3c2[C@H]1Cc1ccc(O)c(O)c1-3` [WEHI-1215034, R(-)-Propylnorapomorphine hydrochloride], the inhibition at 10 µM in assay [1] (Batch Reference=01) is 84.9%. The same molecule registered an inhibition at 20 µM in assay [2] (Batch Reference=01) of 83%. The like results for `CN1CCc2cc(O)cc3c2[C@H]1Cc1ccc(O)c(O)c1-3` [WEHI-1215043, R(-)-2,10,11-Trihydroxyaporphine hybrobromide] were, in that order, 84.7% and 62.6%. In assay [1] (Batch Reference=01), `CCCN1CCc2cc(O)cc3c2[C@H]1Cc1ccc(O)c(O)c1-3` [WEHI-1215052, R(-)-2,10,11-Trihydroxy-N-propylnoraporphine hydrobromide] displayed an inhibition at 10 µM of 87.2%. The inhibition at 20 µM in assay [2] (Batch Reference=01) was 69.8%. As to `CC#C[C@]1(O)CC[C@H]2[C@@H]3CCC4=CC(=O)CCC4=C3[C@@H](c3ccc(N(C)C)cc3)C[C@@]21C` [WEHI-1215337, Mifepristone], the inhibition at 10 µM in assay [1] (Batch Reference=01) is 91.7%; in assay [1] (Batch Reference=03), 96.5%. Besides, the values for the inhibition at 20 µM in assay [2] (Batch Reference=01) and in assay [2] (Batch Reference=03) were 75.3% and 76.6%, respectively. In assay [1] (Batch Reference=01), `C[n+]1cc2c3c(ccc2c2ccc4cc5c(cc4c21)OCO5)OCO3` [WEHI-1215580, Sanguinarine chloride] displayed an inhibition at 10 µM of 99%. At 20 µM the inhibition in assay [2] (Batch Reference=01) was 70.3%. The like results for `O=C(O)Cc1cccc(OCCCN(Cc2cccc(C(F)(F)F)c2Cl)CC(c2ccccc2)c2ccccc2)c1` [WEHI-1216231, GW 3965 hydrochloride] were, in that order, 51.1% and 57.8%.

As to `CN1CCc2cccc3c2[C@H]1Cc1ccc(O)c(O)c1-3` [WEHI-1216442, (R)-(-)-Apomorphine hydrochloride], the inhibition at 10 µM in assay [1] (Batch Reference=01) is 76.5%. In addition, the inhibition at 20 µM in assay [2] (Batch Reference=01) is 70.8%. Take `O=C1C=CC(=O)c2c1ccc1c2ccc2ccccc21` [WEHI-1216729, Chrysene-1,4-quinone]: the inhibition at 10 µM in assay [1] (Batch Reference=01) came to 71%. In addition, the inhibition at 20 µM in assay [2] (Batch Reference=01) came out at 56.6%. Molecule `CC[N+](C)(CC)CCC[n+]1c(-c2ccccc2)c2cc(N)ccc2c2ccc(N)cc21` [WEHI-1216760, Propidium iodide] came in with an inhibition at 10 µM in assay [1] (Batch Reference=01) of 77%. The molecule further showed an inhibition at 20 µM in assay [2] (Batch Reference=01) of 55.7%. In turn, `NCCNCCNCCNCCN` [WEHI-1217021, Tetraethylenepentamine pentahydrochloride] yielded an inhibition at 10 µM in assay [1] (Batch Reference=01) of 96.9%. In assay [2] (Batch Reference=01), this molecule displayed an inhibition at 20 µM of 96.2%.

`CN1CCc2cccc3c2[C@H]1Cc1ccc(O)c(O)c1-3` [WEHI-1217165, R(-) Apomorphine hydrochloride hemihydrate]: the “% Inhibition Confirmation” value in assay [1] (Batch Reference=01) came to 62.575%. For the same molecule, the “% Inhibition Pilot” value in assay [2] (Batch Reference=01) came to 61.89%. Consider `COCCCOc1ccnc(C[S+]([O-])c2nc3ccccc3[nH]2)c1C` (stereo not shown) [rabeprazole, reference compound], for which the “Rh5 inhibitory activity” value in assay [3] is “not active”. In assay [1] (Batch Reference=01), `COCCCOc1ccnc(C[S+]([O-])c2nc3ccccc3[nH]2)c1C` (stereo not shown) [rabeprazole] gave an inhibition at 10 µM of 68%. In assay [2] (Batch Reference=01), this molecule yielded an inhibition at 20 µM of 59.6%.

The values above are taken from PMC7645381, “Development and application of a high-throughput screening assay for identification of small molecule inhibitors of the P. falciparum reticulocyte binding-like homologue 5 protein” (International Journal for Parasitology: Drugs and Drug …, 2020).
